Source: patent US8586609B2, “Aryl-substituted polycyclic amines, method for the production thereof, and use thereof as a medicament” (Sanofi-Aventis Deutschland GmbH, priority 2004, dated 2013)

Test system: female NMRI mice
Experiment: Anorectic effect: reduction in cumulative milk consumption of treated compared with control animals
Type: in vivo
Conditions: oral dose 30 mg/kg by gavage; female NMRI mice after withdrawal of feed for 17 hours; condensed milk consumption determined every half hour for 7 hours
Procedure: The anorectic effect was tested on female NMRI mice. After withdrawal of feed for 17 hours, the test product was administered by gavage. The animals were housed singly with free access to drinking water and were offered condensed milk 30 minutes after administration of the product. The condensed milk consumption was determined every half hour for 7 hours, and the general wellbeing of the animals was observed. The measured milk consumption was compared with the vehicle-treated control animals.

In the case of CN1C[C@H]2CCN(c3ccc(NC(=O)N4CCC(c5ccc(Cl)cc5)CC4)cc3)[C@H]2C1 (stereo in doubt) [Example 9, 4-(4-Chlorophenyl)piperidine-1-carboxylic acid [4-(5-methylhexahydropyrrolo[3,4-b]pyrrol-1-yl)phenyl]amide], the “Reduction in cumulative milk consumption as % of the control” value is reported as 82 % of the control.
